Results reported in patent US8110547B2, “Compositions for buccal delivery of parathyroid hormone” (Emisphere Technologies, Inc., priority 2005, dated 2012).
Read-outs that look alike come from different tables or passages of the source.

Legend:
[1] = Pharmacokinetics after buccal, oral and subcutaneous administration of PTH to dogs; format: in vivo; details: dog; for AUC(0-t) / Cmax / Tmax / F rel: in vivo; for F rel: bioavailability relative to subcutaneous administration, read-out: AUC0−>t BA (%)
Procedure: The animal was moderately sedated using 0.4-0.8 mg/kg midazolam (IM) and 0.03-0.04 mg/kg medetomidine IV or IM in order to minimize the risk of the animal swallowing the test material. The level of sedation was continuously monitored and respiratory rate and general activity level was noted. Once adequately sedated, the dog was moved to a flat surface and an intravenous catheter was placed in the cephalic vein. For dose application, the dog was placed on its side with its head and jaw angled to maximally hold the test material in the mouth.
For an aqueous dosing solution, a syringe filled with the dosing solution (up to 1.5 ml) was placed sublingually and infused slowly up to 0.75 ml in an equal amount at the right and left space under the tongue of the dog. For sublingual tablet, the tablets were placed under the tongue and up to 1.5 ml of saline was administered to facilitate the sublingual dissolution. On one hour post-administration, any remaining formulation was removed by syringe aspiration and the area was rinsed once with saline solution and the saline solution that was then removed by a syringe aspiration.
Once the animal recovered from the sedatives, restraint-acclimated animals was restrained using a sling for the duration of the experiment. Blood samples were collected at specific time-points, i.e., 0, 0.25, 0.5, 1, 1.5, 2, 2.5 and up to 4 hours.
For comparison of the dosing route with intraoral delivery, an oral tablet dosing study was followed. The equivalent dose of drug and carrier was prepared to be the oral formulation of tablets that were gavaged, and 1 ml of water was administered into the gavaging tubing.
The final two columns in Table 2 show the relative bioavailability to subcutaneous administration by buccal and oral administrations of PTH to dog, and the respective coefficient of variations.

[2] = Serum PTH pharmacokinetics after oral and buccal administration to rats; format: in vivo, Male Sprague Dawley rats; details: rat, 0.2 mg/kg PTH with 200 mg/kg monosodium 4-MOAC; for AUC(0-inf) / AUC(0-t) / Cmax / Tmax: male, Sprague Dawley, serum, 0.2 mg/kg
Procedure: A stock solution of human recombinant PTH (1-34) was prepared by dissolving hPTH (1-34) (Eli Lilly, Indianapolis, Ind.) in deionized water to a concentration of 4 mg/ml. A stock solution of delivery agent was prepared by dissolving the delivery agent in deionized water. The pH of the resulting delivery agent solution was adjusted to between 7.5 and 8.5. A liquid buccal dosage form was prepared by mixing the PTH stock solution with the delivery agent stock solution immediately prior to dosing. For the present example, four dosage forms were prepared as described below.
The dosage forms were administered to Male Sprague Dawley rats, ranging in weight from about 250 g to about […]. Each rat was anesthesized with 2% isofiurane in pure oxygen during the whole experiment. The femoral artery was cannulated for blood sampling. The esophagus was ligated to prevent wallowing of the dosing solution. The trachea was intubated and the rat was provided with a constant flow of 2% isofiurane in oxygen.
The liquid dosage form was administered by inserting a T-shaped dosing tool into the mouth of the rat. The center of the dosing tool was placed under the tongue and the liquid dosage form (approximately […] body weight) was administered by syringe through the dosing tool, such that the dosage was distributed evenly throughout the buccal area. Following administration, the mouth was glued shut. Blood samples were drawn at predetermined periods from the femoral artery and assayed for PTH. The liquid dosage solution was allowed to remain in the buccal area for 90 minutes (e.g., the dosing duration). After 90 minutes the liquid dosage solution was removed from the buccal area by syringe.
The concentration of PTH was determined using a PTH (1-34) immunradiometric assay kit (Immutopics, San Clemente, Calif.). Samples were prepared by storage for 20 minutes between 2° C. and 8° C., followed by centrifugation at 10,000 G for 10 minutes to obtain serum. The serum concentration of PTH was than determined using a PTH (1-34) immunradiometric assay kit.
A liquid dosage form was prepared as described above wherein the dosage amount of monosodium 4-MOAC was 200 mg/kg and the dosage amount of PTH was 0.2 mg/kg. The dosage form was administered buccally as described above. Oral administration was carried out by anesthetizing the rat with a mixture of ketamine (44 mg/kg) and thorazine (1.5 mg/kg), followed by administration of the oral dosage by a gavaging trocar. The dosing duration for buccal administration was 5 and 60 minutes respectively. Blood samples were drawn from the rat as described above and the serum concentration of PTH was determined as described previously.

[3] = buccal (sublingual), formulation removed one hour post-administration
[4] = buccal 5 min dosing duration versus oral
[5] = buccal 60 min dosing duration versus oral

- AUC0−>t BA (%) ([1]; subcutaneous (reference route)): 100%
- AUC(0-t) ([1]; sc, subcutaneous): 8.47 ng·h/mL
- Cmax ([1]; sc, subcutaneous): 6.39 ± 1.97 ng/mL
- Tmax ([1]; sc, subcutaneous): 26 min
- AUC(0-t) [1, 3]: 2.82 ng·h/mL
- Cmax [1, 3]: 3.35 ± 2.65 ng/mL
- Tmax [1, 3]: 62 min
- F rel ([1]; buccal): 3.3%
- AUC(0-t) ([1]; oral tablets gavaged): 0.41 ng·h/mL
- Cmax ([1]; oral tablets gavaged): 0.632 ± 0.568 ng/mL
- Tmax ([1]; oral tablets gavaged): 23 min
- F rel ([1]; oral): 4.8%
- AUC(0-inf) ([2]; buccal, 5 min dosing duration): 2.8 ng·h/mL
- AUC(0-t) ([2]; buccal, 5 min dosing duration): 0.975 ng·h/mL
- Cmax ([2]; buccal, 5 min dosing duration): 1.7 ng/mL
- Tmax ([2]; buccal, 5 min dosing duration): 5 min
- AUC(0-inf) ([2]; buccal, 60 min dosing duration): 3.44 ng·h/mL
- AUC(0-t) ([2]; buccal, 60 min dosing duration): 1.29 ng·h/mL
- Cmax ([2]; buccal, 60 min dosing duration): 1.82 ng/mL
- Tmax ([2]; buccal, 60 min dosing duration): 15 min
- AUC(0-inf) ([2]; po, oral gavage): 2.62 ng·h/mL
- AUC(0-t) ([2]; po, oral gavage): 10.4 ng·h/mL
- Cmax ([2]; po, oral gavage): 1.43 ng/mL
- Tmax ([2]; po, oral gavage): 15 min
- Buccal:Oral AUC0−>t Ratio [2, 4]: 0.94
- Buccal:Oral AUC0−>∞ Ratio [2, 4]: 1.1
- Buccal:Oral AUC0−>t Ratio [2, 5]: 1.2
- Buccal:Oral AUC0−>∞ Ratio [2, 5]: 1.3
Compound: CC[C@H](C)[C@H](NC(=O)[C@H](CCC(=O)O)NC(=O)[C@H](CO)NC(=O)[C@@H](NC(=O)[C@@H](N)CO)C(C)C)C(=O)N[C@@H](CCC(N)=O)C(=O)N[C@@H](CC(C)C)C(=O)N[C@@H](CCSC)C(=O)N[C@@H](Cc1cnc[nH]1)C(=O)N[C@@H](CC(N)=O)C(=O)N[C@@H](CC(C)C)C(=O)NCC(=O)N[C@@H](CCCCN)C(=O)N[C@@H](Cc1cnc[nH]1)C(=O)N[C@@H](CC(C)C)C(=O)N[C@@H](CC(N)=O)C(=O)N[C@@H](CO)C(=O)N[C@@H](CCSC)C(=O)N[C@@H](CCC(=O)O)C(=O)N[C@@H](CCCN=C(N)N)C(=O)N[C@H](C(=O)N[C@@H](CCC(=O)O)C(=O)N[C@@H](Cc1c[nH]c2ccccc12)C(=O)N[C@@H](CC(C)C)C(=O)N[C@@H](CCCN=C(N)N)C(=O)N[C@@H](CCCCN)C(=O)N[C@@H](CCCCN)C(=O)N[C@@H](CC(C)C)C(=O)N[C@@H](CCC(N)=O)C(=O)N[C@@H](CC(=O)O)C(=O)N[C@H](C(=O)N[C@@H](Cc1cnc[nH]1)C(=O)N[C@@H](CC(N)=O)C(=O)N[C@@H](Cc1ccccc1)C(=O)O)C(C)C)C(C)C [PTH, human recombinant PTH (1-34)]
